Laboratory results: US20080039425A1, “Methods and Compositions to Reduce Tissue Irritation in Parenteral Formulations” (ALLOS THERAPEUTICS, INC., priority 2004, published 2008)

System: rat tail vein
Test: Rat-tail model, histopathological evaluation of tissue damage
Assay type: in vivo
Conditions: for Histopathology Score: rat tail vein, relative to efaproxiral at 38 mg/mL
Method: In order to determine if the effects seen in the NMR correlated to an ability of the dextrins to protect tissue, an animal model was designed. […] A 38 mg/mL efaproxiral solution was administered as the positive control. A saline solution was used as the negative control.
Maltodextrin has the property of being a safer molecule than its cyclic relative.

Row | SMILES | Histopathology Score (efaproxiral 20 mg/mL) | Histopathology Score (efaproxiral 38 mg/mL (positive control)) | Tissue damage in rat tail (in words) (38 mg/mL efaproxiral, compared with saline negative control)
1 | Cc1cc(C)cc(NC(=O)Cc2ccc(OC(C)(C)C(=O)O)cc2)c1 [Efaproxiral, 2-[4-[2-[(3,5-dimethylphenyl)amino]-2-oxoethyl]phenoxy]-2-methyl-propionic acid] | 24% | 100% | 
2 | Cc1cc(C)cc(NC(=O)Cc2ccc(OC(C)(C)C(=O)[O-])cc2)c1.[Na+] [efaproxiral-Na] |  |  | significant damage was observed beyond that associated with the administration
